Reference: the NIST ThermoML archive (doi:10.1021/acs.jced.8b00537)
± gives the expanded uncertainty stated by the source.

Assay: xn = mol fraction of the nth substance listed
Settings: 100 kPa, Liquid, x2 = 0; for viscosity: Capillary tube (Ostwald / Ubbelohde) method; for speed of sound: Frequency=3 MHz, Single path-length method; for mass density: Vibrating tube method

## CCCO [propan-1-ol] + CC[S+](CC)CC.O=S(=O)([N-]S(=O)(=O)C(F)(F)F)C(F)(F)F
293.15 K
  viscosity: 2.14 ± 0.17 mPa·s
  speed of sound: 1223.8 ± 6 m/s
  mass density: 804 ± 2 kg/m3
298.15 K
  viscosity: 1.897 ± 0.15 mPa·s
  speed of sound: 1206.5 ± 6 m/s
  mass density: 800 ± 2 kg/m3
303.15 K
  viscosity: 1.688 ± 0.14 mPa·s
  speed of sound: 1189.4 ± 6 m/s
  mass density: 796 ± 2 kg/m3
308.15 K
  viscosity: 1.506 ± 0.12 mPa·s
  speed of sound: 1172.4 ± 6 m/s
  mass density: 792 ± 2 kg/m3
313.15 K
  viscosity: 1.348 ± 0.11 mPa·s
  speed of sound: 1155.5 ± 6 m/s
  mass density: 787 ± 2 kg/m3
318.15 K
  viscosity: 1.211 ± 0.097 mPa·s
  speed of sound: 1138.7 ± 6 m/s
  mass density: 783 ± 2 kg/m3
323.15 K
  viscosity: 1.09 ± 0.087 mPa·s
  speed of sound: 1121.9 ± 6 m/s
  mass density: 779 ± 2 kg/m3
328.15 K
  viscosity: 0.985 ± 0.079 mPa·s
  speed of sound: 1105.2 ± 6 m/s
  mass density: 775 ± 2 kg/m3
333.15 K
  viscosity: 0.892 ± 0.072 mPa·s
  speed of sound: 1088.3 ± 6 m/s
  mass density: 770 ± 2 kg/m3
338.15 K
  viscosity: 0.81 ± 0.065 mPa·s
  speed of sound: 1071.5 ± 6 m/s
  mass density: 766 ± 2 kg/m3
343.15 K
  viscosity: 0.737 ± 0.059 mPa·s
  speed of sound: 1054.5 ± 6 m/s
  mass density: 762 ± 2 kg/m3

## CCCO [propan-1-ol] + C=CCn1cc[n+](C)c1.O=S(=O)([N-]S(=O)(=O)C(F)(F)F)C(F)(F)F
293.15 K
  viscosity: 2.14 ± 0.17 mPa·s
  speed of sound: 1223.8 ± 6 m/s
  mass density: 804 ± 2 kg/m3
298.15 K
  speed of sound: 1206.5 ± 6 m/s
303.15 K
  viscosity: 1.688 ± 0.14 mPa·s
  speed of sound: 1189.4 ± 6 m/s
  mass density: 796 ± 2 kg/m3
308.15 K
  viscosity: 1.506 ± 0.12 mPa·s
  speed of sound: 1172.4 ± 6 m/s
  mass density: 792 ± 2 kg/m3
313.15 K
  viscosity: 1.348 ± 0.11 mPa·s
  speed of sound: 1155.5 ± 6 m/s
  mass density: 787 ± 2 kg/m3
318.15 K
  viscosity: 1.211 ± 0.097 mPa·s
  speed of sound: 1138.7 ± 6 m/s
  mass density: 783 ± 2 kg/m3
323.15 K
  viscosity: 1.09 ± 0.087 mPa·s
  speed of sound: 1121.9 ± 6 m/s
  mass density: 779 ± 2 kg/m3
328.15 K
  viscosity: 0.985 ± 0.079 mPa·s
  speed of sound: 1105.2 ± 6 m/s
  mass density: 775 ± 2 kg/m3
333.15 K
  viscosity: 0.892 ± 0.072 mPa·s
  speed of sound: 1088.3 ± 6 m/s
  mass density: 770 ± 2 kg/m3
338.15 K
  viscosity: 0.81 ± 0.065 mPa·s
  speed of sound: 1071.5 ± 6 m/s
  mass density: 766 ± 2 kg/m3
343.15 K
  viscosity: 0.737 ± 0.059 mPa·s
  speed of sound: 1054.5 ± 6 m/s
  mass density: 762 ± 2 kg/m3
